Experimental data taken from US6610744B2, “Methods of treatment with compounds having RARα receptor specific or selective activity” (Allergan, Inc., priority 1995, dated 2003).
Converted amounts (≈) assume the structure as drawn.

Columns and labels:
ovarian tumor cells = assay: EDR assay on cells from solid tumors of patients; type: cell-based, human; settings: FIG. 4; tumors from 4 patients, four days with drug
Protocol: Freshly resected solid tumor biopsies were received within 24 hours of surgery. Species were processed for assay after retaining a portion of the tumor for paraffin embedding and histopathologic confirmation of specimen viability and tissue diagnosis. The remaining specimen was dissociated into small fragments using sterile scissors. The small tissue fragments were then exposed to collagenase and DNAase for 2 hours with mixing a CO2 incubator in order to release the tumor cells from the connective tissue stroma. The resulting cell suspension was washed, and cell counts determined from a cytospin preparation. Tumor cells were resuspended at 40,000 cells per ml in 0.3% agarose in RMPI 1640 supplemented with 15% FCS, glutamine and antibiotics, and 0.5 ml were plated into each well of a 24 well plate over 0.5 ml layer of 0.5% agarose. These culture conditions prevent cell adherence, thereby allowing only transformed cells to proliferate. Additionally, the cells grow into three dimensional spheroids, recapitulating their in vivo morphology.
Retinoid drugs were added 24 hours after plating to insure specimen reequilibration to a growth environment after the rigors of transport and processing. […] After the agarose-cell suspension was liquefied at 90° C., cells were harvested onto glass fiber filters, which were counted in 5 ml scintillation fluid using a Beckman 6500 liquid scintillation counter. […]

[1] = test system: AML-193 cells (acute monocytic leukemia); assay: AML 193 cell culture assay (3H-thymidine incorporation); type: cell-based, human; settings: FIG. 3; low concentrations
Protocol: (§1) All trans-retinoic acid (t-RA) (Sigma Chemicals Co., St. Louis, Mo.) was stored at −70° C. Prior to each experiment the compound was dissolved in 100% ethanol at 1 mM and diluted in culture medium immediately before use. All experiments were performed in subdued light. Controls were assayed using the same concentration of ethanol as present in the experimental plates and this concentration of diluent had no effect in either assay.
AML-193 was established from the blast cells classified as M5 Acute Monocyte Leukemia. The growth factor, […] (GM-CSF) was required to establish this cell line and growth factors are necessary for its continuous proliferation in chemically defined medium. AML-193 cells were grown and maintained in Iscove's modified Dulbecco's medium supplemented with 10% fetal bovine serum, glutamine and antibiotics with 5 μg/ml insulin (Sigma Chemical Co.) and 2 ng/ml rh GM-CSF (R and D Systems). The cells were diluted to a concentration of 3×10^5/ml twice a week.
(§2) AML-193 cells were plated in a 96 well round bottom microtiter plate (Costar) at a density of 1,000 cells/well. To appropriate wells, retinoid test compounds were added at the final concentrations indicated for a final volume of 150 μl/well. The plates were incubated for 96 hours at 37° C. in a humidified atmosphere of 5% CO2 in air. Subsequently, 1 μCi of [5′-^3H]-thymidine (Amersham, U.K., 43 Ci/mmol specific activity) in 25 μl culture medium was added to each well and the cells were incubated for an additional 6 hours.
(§3) The cell lines were then processed as follows: the cellular DNA was precipitated with 10% trichloroacetic acid onto glass fiber filter mats using a SKATRON multi-well cell harvester (Skatron Instruments, Sterling Va.). Radioactivity incorporated into DNA, as a direct measurement of cell growth, was measured by liquid scintillation counting. The numbers represent the mean disintegrations per minute of incorporated thymidine from triplicate wells±SEM.

[2] = test system: limb bud mesenchymal cells; assay: Chondrogenesis suppression bioassay (teratogenic potency); type: cell-based; settings: read-out: IC50 (50% inhibition of chondrogenesis); mouse limb bud spot cultures, 96 hours after plating; greater IC50 signifies lesser teratogenecity
Protocol: High-density “spot” cultures of limb bud mesenchymal cells are used to compare the ability of various concentrations of test drugs to suppress chondrogenic differentiation as a bioassay. Forelimb buds of mouse embryos on day 12 of gestation (54±2 somites) are dissociated in a trypsin-EDTA solution, and the resultant single-cell suspension is plated as 20-μl spots (200,000 cells/spot) on plastic culture dishes. Retinoid concentrations ranging from 0.3 ng/ml to 3 μg/ml (1 nM−10 μM) are added to the culture medium (Eagle's MEM±10% fetal bovine serum, GIBCO) 24 hours after initial plating. Control cultures receive only the vehicle (ethanol, concentration≦1% by vol); Retinoic acid is used as a positive control in another set of cultures.
The cultures are terminated 96 hours after plating, at which time the medium is removed and the cells are fixed for 1 hour in 10% formalin containing 0.5% cetylpyridinium chloride. The cultures are rinsed in acetic acid and stained for 1 hour in 0.5% Alcian blue solution at pH 1.0, differentiated in 3% acetic acid, and then dehydrated in ethanol and scored for chondrogenesis under the microscope. An absence or reduction in the number of cartilage nodules in stained cultures as compared with control cultures is taken as a measure of suppression of chondrogenesis. The number of cartilage nodules stained in the whole spot, mean number of nodules, and standard deviations are calculated for four replicate cultures per treatment. […] The IC50 values are expressed in nanogram per mililiter (ng/ml) units. An IC50 value of greater concentration in this assay signifies lesser teratogenecity.

[3] = test system: RPMI 8226 cells (malignant myeloma); assay: RPMI 8226 cell culture assay (3H-thymidine incorporation); type: cell-based, human; settings: FIG. 1; low concentration range 10^−12 to approximately 10^−9
Protocol: as §1
The cell lines, RPMI 8226, ME-180 and AML-193 were obtained from the American Type Culture Collection (ATCC, Rockville, Md.). RPMI 8226 is a human hematopoietic cell line obtained from the peripheral blood of a patient with multiple myeloma. The cells resemble the lymphoblastoid cells of other human lymphocyte cell lines and secrete […] light chains of immunoglobulin. RPMI-8226 cells are grown in RPMI medium (Gibco) supplemented with 10% fetal bovine serum, glutamine and antibiotics. The cells were maintained as suspension cultures grown at 37° C. in a humidified atmosphere of 5% CO2 in air. The cells were diluted to a concentration of 1×10^5/ml twice a week.
as §2, with “The method used for determination of the incorporation of radiolabeled thymidine was adapted from the procedure described by Shrivastav et al. RPMI-8226” for “AML-193”, “U.K.” for “U.K.,”, “hours. The cultures were further processed as described below.” for “hours.”
as §3

[4] = test system: retinal pigment epithelium (RPE) cells; assay: Primary RPE culture proliferation; type: cell-based, human; settings: FIG. 5; 10^−10 to 10^−6 M, six days treatment
Protocol: Primary cultures of human retinal pigment epithelium (RPE) were established from eyes as previously described, (Campochiaro et al., Invest. Opthal & Vis. Sci. 32:65-72 (1991)). 5×10^4 Cells were plated in 16-mm wells of 24-well multiwell plates in Dulbecco's modified Eagle's medium (DMEM Gibco) containing 10% fetal bovine serum (FBS). Cells were treated with ethanol alone (control), ATRA (10^−10 to 10^−6 M) in ethanol, and Compound 42 (10^−10 to 10^−6 M) in ethanol. Cells were fed with fresh media containing the appropriate concentrations of these compounds every two days for a total of six days treatment. Cells were removed from the plates via treatment with trypsin and the number of cells were counted with an electronic cell counter.

| Compound | ovarian tumor cell proliferation (ovarian tumor cells) | AML-193 cell proliferation at low concentrations [1] | IC50 [2] | growth of RPMI 8226 cells at low concentration [3] | RPE cell proliferation [4] |
| --- | --- | --- | --- | --- | --- |
| CC1(C)CCC(C)(C)c2cc(C(=O)Nc3ccc(C(=O)O)c(F)c3)ccc21 [Compound 2] | inhibits this tumor cell proliferation in a concentration dependent manner |  |  |  |  |
| CC1=C(/C=C/C(C)=C/C=C/C(C)=C/C(=O)O)C(C)(C)CCC1 [ATRA, all trans retinoic acid, reference compound] |  | promotes cell proliferation | 0.055 µg/mL (≈ 0.183 µM) | facilitates growth | dose dependent decrease in RPE cell proliferation |
